According to EP4603105A1, “PHARMACEUTICAL COMPOSITION CONTAINING CYCLIC COMPOUND HAVING SELECTIVE KRAS INHIBITORY EFFECT AGAINST HRAS AND NRAS” (CHUGAI SEIYAKU KABUSHIKI KAISHA, priority 2022, dated 2024):
Where two headings read alike, the source gives them in different places.

Key:
[1] = tested on: human lung cancer strain NCI-H441; assay: NCI-H441 cell proliferation inhibitory activity (CellTiter-Glo, 4 days); assay type: cell-based; conditions: read-out: NCl-H441 IC50
Method in brief: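 Step one: dispense the test compound in serial DMSO dilutions. Step three: add the reagent and measure […].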

[2] = target: GDP-bound NRAS wild-type protein (Homo sapiens, UniProt P01111); assay: Binding to NRAS by surface plasmon resonance (SPR), KD and KD ratio to KRAS
Method in brief: (§1)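 Running buffer contained 10 µM GDP and 10 mM MgCl2 to keep RAS in the GDP state, with 4% DMSO at pH 7.4. Compounds were flowed at 100 µL/min in 75 s steps of rising concentration over captured biotin-Avi RAS at 30°C. Sensorgrams were fitted 1:1 for KD.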

[3] = target: HRAS wild-type protein (Homo sapiens, UniProt P01112); assay: Binding to HRAS by surface plasmon resonance (SPR), KD and KD ratio to KRAS
Method in brief: as §1

[4] = target: GDP-bound KRAS wild-type protein (Homo sapiens, UniProt P01116); assay: Binding to KRAS by surface plasmon resonance (SPR), dissociation constant KD; conditions: Single Cycle Kinetics
Method in brief: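 Captured GDP-RAS (~100–300 RU) was exposed to increasing compound concentrations, 75 s per step, in running buffer with 10 µM GDP, 10 mM MgCl2 and 4% DMSO at pH 7.4.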

[5] = ratio of KD for GDP-bound NRAS wild-type protein to KD for KRAS
[6] = ratio of KD for HRAS wild-type protein to KD for KRAS
[7] = 50% proliferation inhibitory concentration, four days
[8] = ratio of KD with respect to GDP-bound NRAS wild-type protein to KD with respect to KRAS
[9] = ratio of KD with respect to HRAS wild-type protein to KD with respect to KRAS

GDP-bound NRAS wild-type protein, sequence (P01111 whole entry): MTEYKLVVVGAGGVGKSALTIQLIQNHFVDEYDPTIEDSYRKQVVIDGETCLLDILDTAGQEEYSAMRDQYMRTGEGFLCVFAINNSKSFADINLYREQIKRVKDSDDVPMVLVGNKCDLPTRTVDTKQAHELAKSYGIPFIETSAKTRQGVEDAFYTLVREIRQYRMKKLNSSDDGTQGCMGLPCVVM
HRAS wild-type protein, sequence (P01112 whole entry): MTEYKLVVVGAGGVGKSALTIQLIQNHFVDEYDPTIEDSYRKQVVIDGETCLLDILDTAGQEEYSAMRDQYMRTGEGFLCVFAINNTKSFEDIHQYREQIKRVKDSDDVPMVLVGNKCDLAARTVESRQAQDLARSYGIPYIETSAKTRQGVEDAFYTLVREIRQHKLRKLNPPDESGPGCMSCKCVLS
GDP-bound KRAS wild-type protein, sequence (P01116 1-188 isoform P01116-2): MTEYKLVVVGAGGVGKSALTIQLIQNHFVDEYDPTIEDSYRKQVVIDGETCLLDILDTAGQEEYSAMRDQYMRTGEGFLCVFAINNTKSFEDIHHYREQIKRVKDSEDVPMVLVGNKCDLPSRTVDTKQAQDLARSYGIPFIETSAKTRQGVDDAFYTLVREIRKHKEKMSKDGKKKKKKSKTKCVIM

## CCC[C@H]1C(=O)N[C@@H]([C@@H](C)CC)C(=O)N2CCC[C@H]2C(=O)N(C)[C@H]2C/C(F)=C\CCN(C2=O)[C@@H](Cc2ccc(C(F)(F)F)cc2)C(=O)N(C)CC(=O)N[C@@H](CCc2ccc(C(F)(F)F)c(OC)c2)C(=O)N2C[C@H](OCC)C[C@H]2C(=O)N(C)C2(CCC2)C(=O)N(C)[C@@H](C2CCCC2)C(=O)N(C)[C@H](C(=O)N(C)C)CC(=O)N1C [PP3509]
[1]; NCI-H441 cells, 4 days
  IC50: 9.4 nM
[2]; [5]
  NRAS /KRAS: B (a compound having 3 or more and less than 10 is denoted as B)
[3]; [6]
  HRAS /KRAS: B (a compound having 3 or more and less than 10 is denoted as B)
[4]
  Kd: 0.41 nM

## CCC[C@H]1C(=O)N[C@@H]([C@@H](C)CC)C(=O)N2CCCCC[C@H]2C(=O)N(C)[C@H]2C/C=C\CCN(C2=O)[C@@H](Cc2ccc(C(F)(F)F)cc2)C(=O)N(C)CC(=O)N[C@@H](CCc2ccc(C(F)(F)F)c(OC)c2)C(=O)N2C[C@H](OCC)C[C@H]2C(=O)N(C)C2(CCC2)C(=O)N(C)[C@@H](C2CCCC2)C(=O)N(C)[C@H](C(=O)N(C)C)CC(=O)N1C [PP3276]
[1]; NCI-H441 cells, 4 days
  IC50: 105 nM
[2]; [5]
  NRAS /KRAS: A (a compound having 10 or more and less than 20 is denoted as A)
[3]; [6]
  HRAS /KRAS: A (a compound having 10 or more and less than 20 is denoted as A)
[4]
  Kd: 4 nM

## CCCO[C@@H]1C[C@H]2C(=O)NC3(CC(C)(C)C3)C(=O)N(C)[C@@H](C3CCCC3)C(=O)N(C)[C@H](C(=O)N(C)CC)CC(=O)N[C@@H](COCC)C(=O)N[C@@H]([C@@H](C)CC)C(=O)N(C3CC3)CC(=O)N(C)[C@H]3C/C=C\CCN(C3=O)[C@@H](Cc3ccc(C)cc3)C(=O)N(C)CC(=O)N[C@@H](CCc3ccc(C(F)(F)F)c(OC)c3)C(=O)N2C1 [PP3437]
[1]; NCI-H441 cells, 4 days
  IC50: 51.6 nM
[2]; [5]
  NRAS /KRAS: AA (a compound having 20 or more is denoted as AA)
[3]; [6]
  HRAS /KRAS: A (a compound having 10 or more and less than 20 is denoted as A)
[4]
  Kd: 1.3 nM

## CCO[C@@H]1C[C@H]2C(=O)NC3(CCCC3)C(=O)N(C)[C@@H](C3CCCC3)C(=O)N(C)[C@H](C(=O)N3CCOCC3)CC(=O)N(C)[C@@H](CC)C(=O)N[C@@H]([C@@H](C)CC)C(=O)N(C)CC(=O)N(C)[C@H]3CC[C@@H](C)CN(C3=O)[C@@H](Cc3ccc(C(F)(F)F)cc3)C(=O)N(C)CC(=O)N[C@@H](CCc3ccc(C(F)(F)F)c(Cl)c3)C(=O)N2C1 [PP1377]
[1]; [7]
  IC50: 5.8 nM
[2]; [8]
  NRAS /KRAS: B (a compound having 3 or more and less than 10 is denoted as B)
[3]; [9]
  HRAS /KRAS: B (a compound having 3 or more and less than 10 is denoted as B)
[4]; 1:1 binding model
  Kd: 0.087 nM

## CCC[C@H]1C(=O)N[C@@H](C2CCCC2)C(=O)N(C)CC(=O)N(C)[C@H]2C/C=C\CCN(C2=O)[C@@H](Cc2ccc(C)cc2)C(=O)N(C)CC(=O)N[C@@H](CCc2cc(F)c(C(F)(F)F)c(F)c2)C(=O)N2CC3(CC3)C[C@H]2C(=O)NC2(CCC2)C(=O)N(C)[C@@H](C(CC)CC)C(=O)N(C)[C@H](C(=O)N(C)C)CC(=O)N1C [PP3428]
[1]; NCI-H441 cells, 4 days
  IC50: 18.7 nM
[2]; [5]
  NRAS /KRAS: A (a compound having 10 or more and less than 20 is denoted as A)
[3]; [6]
  HRAS /KRAS: A (a compound having 10 or more and less than 20 is denoted as A)
[4]
  Kd: 0.77 nM

## CCO[C@@H]1C[C@H]2C(=O)NC3(CCC3)C(=O)N(C)[C@@H](C(CC)CC)C(=O)N(C)[C@H](C(=O)N(C)C)CC(=O)N(C)[C@@H](C)C(=O)N[C@@H]([C@@H](C)CC)C(=O)N(C)CC(=O)N(C)[C@H]3C/C=C\CCN(C3=O)[C@@H](Cc3ccc(C(F)(F)F)cc3)C(=O)N(C)CC(=O)N[C@@H](CCc3cc(F)c(C(F)(F)F)c(F)c3)C(=O)N2C1 [PP1199]
[1]; [7]
  IC50: 39.1 nM
[2]; [8]
  NRAS /KRAS: A (a compound having 10 or more and less than 20 is denoted as A)
[3]; [9]
  HRAS /KRAS: A (a compound having 10 or more and less than 20 is denoted as A)
[4]; 1:1 binding model
  Kd: 0.17 nM

## C#CCN1CC(=O)N(C)[C@H]2C/C=C\CCN(C2=O)[C@@H](Cc2ccc(C(F)F)cc2)C(=O)N(C)CC(=O)N[C@@H](CCc2ccc(C(F)(F)F)cc2Cl)C(=O)N2C[C@H](OC(C)C)C[C@H]2C(=O)N(C)C2(CCC2)C(=O)N(C)[C@@H](C(CC)CC)C(=O)N(C)[C@H](C(=O)N(C)C)CC(=O)N(C)[C@@H](CC(C)C)C(=O)N[C@@H]([C@@H](C)CC)C1=O [PP3495]
[1]; NCI-H441 cells, 4 days
  IC50: 37.9 nM
[2]; [5]
  NRAS /KRAS: AA (a compound having 20 or more is denoted as AA)
[3]; [6]
  HRAS /KRAS: A (a compound having 10 or more and less than 20 is denoted as A)
[4]
  Kd: 0.72 nM
